This is an account of results in patent publication US20160030415A1, “TREATMENT AND PROPHYLAXIS OF KIDNEY DISEASES” (priority 2013, published 2016).

In assay [1] the test system is Streptozotocin (STZ) induced diabetic rats. Put plainly: Study 2: HCQ and its combination with Losartan in comparison with anti-diabetic control (Glimepiride) in renal damage. The format is in vivo, Wistar rats. Here is the method:
The Efficacy of the drugs was tested in two different models, one involving comparison with diabetic control (i.e. Diabetic Rats not treated with any medication) and the other involving comparison with the anti-diabetic control group (i.e. Diabetic rats administered Glimepiride) in two separate studies. 30 Wistar rats of either sex weighing 150-250 g were divided randomly into 5 groups consisting of 6 animals each. Diabetes was induced in rats by single administration of Streptozotocin (STZ)(55 mg/kg/i.p) dissolved in 0.1 M-citrate buffer, pH 4.5. Group 1 (normal control) consisted of normal rats that neither received streptozotocin nor any test drug; Group 2 served as Anti-Diabetic control wherein diabetic rats were treated with antidiabetic drug Glimepiride. Group 3 was diabetic rats treated with Losartan (11 mg/kg); Group 4 was diabetic rats treated with Hydroxychloroquine (45 mg/kg) and Group 5 was diabetic rats treated with combination of Hydroxychloroquine (45 mg/kg) and Losartan (11 mg/kg). The study drugs were dissolved/suspended in distilled water and administered orally once a day for eight weeks. The diabetes mellitus induced nephropathy was assessed by estimating the level of serum creatinine and total serum protein content after completion of eighth week of study. TBARS and Total Protein were measured as markers of renal oxidative stress in Kidney Homogenate after completion of eighth week of study.

The test system of assay [2] is STZ induced diabetic nephropathy in rats. Nature of the assay: Study 4: HCQ and its combination with Losartan, Telmisartan, Azilsartan and Ramipril, with Glimepiride control. The class given is in vivo, Wistar rats. As to conditions: dose mg/kg: HCQ 70, GLM 1. The procedure: The methods described in Terri et al, Diabetes Volume, 1997, 46:1612-1618, and Takashi et al, Jpn J. Pharmacol, 1997, 75, 59-64, were followed for inducing Diabetes in rats by injecting Streptozotocin. The Efficacy of the drugs was tested in two different models, one involving comparison with diabetic control (i.e. Diabetic Rats not treated with any medication) and the other involving comparison with the anti-diabetic control group (i.e. Diabetic rats administered Glimepiride) in two separate studies.
Wistar rats of either sex weighing 150-200 g were divided randomly into 28 groups consisting of 6 animals each. Diabetes was induced in rats by single administration of streptozotocin (55 mg/kg/i.p) dissolved in 0.1 M-citrate buffer, pH 4.5. Group 1 (normal control) consisted of normal rats that neither received streptozotocin nor any test drug; Group 2 served as Diabetic control; Group 3 was diabetic rats treated with Hydroxychloroquine (35 mg/kg); Group 4 was diabetic rats treated with Hydroxychloroquine (45 mg/kg) and Group 5 was diabetic rats treated with Hydroxychloroquine (70 mg/kg); Group 6 was diabetic rats treated with Losartan (5.5 mg/kg); Group 7 was diabetic rats treated with Losartan (11 mg/kg); Group 8 was diabetic rats treated with combination of Losartan (5.5 mg/kg) and Hydroxychloroquine (45 mg/kg); Group 9 was diabetic rats treated with combination of Losartan (11 mg/kg) and Hydroxychloroquine (35 mg/kg); Group 10 was diabetic rats treated with Ramipril (0.6 mg/kg); Group 11 was diabetic rats treated with Ramipril (0.3 mg/kg); Group 12 was diabetic rats treated with combination of Ramipril (0.6 mg/kg) and Hydroxychloroquine (35 mg/kg); Group 13 was diabetic rats treated with combination of Ramipril (0.3 mg/kg) and Hydroxychloroquine (45 mg/kg); Group 14 was diabetic rats treated with combination of Ramipril (0.6 mg/kg) and Hydroxychloroquine (45 mg/kg); Group 15 was diabetic rats treated with combination of Ramipril (0.3 mg/kg) and Hydroxychloroquine (35 mg/kg); Group 16 was diabetic rats treated with Telmisartan (9.5 mg/kg); Group 17 was diabetic rats treated with Telmisartan (4.5 mg/kg); Group 18 was diabetic rats treated with combination of Telmisartan (9.5 mg/kg) and Hydroxychloroquine (35 mg/kg); Group 19 was diabetic rats treated with combination of Telmisartan (4.5 mg/kg) and Hydroxychloroquine (45 mg/kg); Group 20 was diabetic rats treated with combination of Telmisartan (9.5 mg/kg) and Hydroxychloroquine (45 mg/kg); Group 21 was diabetic rats treated with combination of Telmisartan (4.5 mg/kg) and Hydroxychloroquine (35 mg/kg); Group 22 was diabetic rats treated with Azilsartan (4.5 mg/kg); Group 23 was diabetic rats treated with Azilsartan (2.5 mg/kg); Group 24 was diabetic rats treated with combination of Azilsartan (4.5 mg/kg) and Hydroxychloroquine (35 mg/kg); Group 25 was diabetic rats treated with combination of Azilsartan (2.5 mg/kg) and Hydroxychloroquine (45 mg/kg); Group 26 was diabetic rats treated with combination of Azilsartan (4.5 mg/kg) and Hydroxychloroquine (45 mg/kg); Group 27 was diabetic rats treated with combination of Azilsartan (2.5 mg/kg) and Hydroxychloroquine (35 mg/kg); Group 28 served as Anti-Diabetic control wherein diabetic rats were treated with antidiabetic drug Glimepiride (GLM) (1 mg/kg).
The study drugs were dissolved/suspended in vehicle and administered orally once a day for eight weeks. The diabetes mellitus induced nephropathy was assessed by estimating the level of serum urea, serum creatinine and total serum protein content after completion of eighth week of study. TBARS, GSH and Total Protein were measured as markers of renal oxidative stress in Kidney Homogenate after completion of eighth week of study. Blood glucose levels were also assessed at weekly interval.

Where [3] appears, read: Glimepiride 8 mg/kg alone (antidiabetic control) or with Losartan 11 mg/kg and/or Hydroxychloroquine 45 mg/kg, oral once daily.
Where [4] appears, read: after 8th week, Glimepiride 8 mg/kg alone or with Losartan 11 mg/kg and/or Hydroxychloroquine 45 mg/kg.
Setting [5] is: kidney homogenate, after 8th week, Glimepiride 8 mg/kg alone or with Losartan 11 mg/kg and/or Hydroxychloroquine 45 mg/kg.
Where [6] appears, read: kidney homogenate, after 8th week.

Marks after values point to notes of the source that are not given here.

Regarding `CCC1=C(C)CN(C(=O)NCCc2ccc(S(=O)(=O)NC(=O)N[C@H]3CC[C@H](C)CC3)cc2)C1=O` [Glimepiride], in assay [1] (setting [3]), the “Serum Creatinine after 8th week” value is 3.17 mg/dL, the “Serum Creatinine after 8th week (% Control)” value is recorded as “(100) % Control”, the “Total Serum Protein Levels after 8th week” value came out at 4.73 g/dL and the “Total Serum Protein Levels after 8th week (% Control)” value is on record as “(100) % Control”. Further, in assay [1] (setting [4]), the “Total Protein in Kidney Homogenate (% Control)” value is on record as “(100) % Control” and the “Total Protein in Kidney Homogenate Mean” value worked out at 926.67 µg/mL. In addition, in assay [1] (setting [5]), the “TBARS (% Control)” value is listed as “(100) % Control” and the “TBARS Mean” value is reported as 0.82 nM/mg. Also, in assay [2] (after 8th week), the HDL stood at 29 ± 1.41 mg/dL, the TC was found to be 142 ± 2.68 mg/dL and the TG amounted to 96.5 ± 2.35 mg/dL. Besides, in assay [2] (blood, Day1), the “Glucose Day1” value stood at 276.83 ± 19.14 mg/dL. Also, the “Glucose Day14” value in assay [2] (blood, Day14) was found to be 216.67 ± 18.44 mg/dL. Also, in assay [2] (blood, Day28), the “Glucose Day28” value came out at 179.17 ± 7.36 mg/dL. Further, in assay [2] (blood, Day42), the “Glucose Day42” value was 159 ± 6.07 mg/dL. Moreover, in assay [2] (blood, Day56), the “Glucose Day56” value was 149.17 ± 7.83 mg/dL. Also, in assay [2] (setting [6]), the GSH came to 2.36 ± 0.64 nM/mg, the TBARS turned out to be 0.5 ± 0.13 nM/mg and the Total protein kidney was 856.83 ± 18.18 µg/mL. In addition, in assay [2] (serum, after 8th week), the Creatinine came out at 3.21 ± 0.23 mg/dL, the Total protein was 4.8 ± 0.18 g/dL and the Urea is on record as 43 ± 2.1*^ mg/dl.
